What was measured:
[1] = system: secreted APP; experiment: ELISA for secreted APP in SHSY5Y cells; format: cell-based, human; conditions: 16 hours
Protocol: (§1) An enzyme-linked immunosorbent assay was developed to detect secreted APP in SHSY5Y cells, a human neuroblastoma cell line. The purpose of the screen was to discover small molecules that inhibit APP protein synthesis in SHSY5Y cells. SHSY5Y cells were plated at 1×10^5 cells/well in […] of DMEM containing 0.5% heat inactivated FBS in 96 well tissue culture treated plates (Falcon no. 35 3072). 144 MES compounds were tested at final concentrations of […] in 0.1% DMSO. Compounds were added and the plates incubated for 16 hours at 37° C./5% CO2. Maxisorp plates (Nunc no. 437958) were coated overnight with […] capture antibody (Biosource 44-100) diluted in Ca^++ and Mg^++ free PBS. Biosource 44-100 is a mouse mAb that recognizes aa 1-100 of human APP. Plates were blocked for 30 minutes with 1 mg/mL BSA in Ca^++ and Mg^++ free PBS. Plates were washed 3× with wash buffer (Ca^++ and Mg^++ free PBS+0.01% Tween20). […] of supernatants and non-cultured medium controls were transferred from culture plates to ELISA plates. Culture plates were reserved for toxicity analysis. Supernatants were incubated for 4 hours at RT on a plate shaker. After supernatant incubation, plates were washed 3×. Primary antibody (Signet Clone 6E-10 biotin) was added at 0.3125 mg/mL and incubated overnight at 4° C. The recognition site of 6E-10 is aa 1-17 of Ab. For detection, a 1:3000 dilution of horseradish peroxidase conjugated streptavidin (Endogen no. N-100) was incubated for 30 minutes. Plates were washed 3×. Enzyme activity was assessed by incubation with […] TMB substrate solution (Moss no. TMB-US) for 20 minutes. The reaction was stopped by the addition of […] 0.18M sulfuric acid. Optical density was read at 450 nm on Wallac Victor2 plate reader. During the first incubation, toxicity was determined using MTS assay, Cell Titer96 AQ reagent (Promega no. G5430). The background values from the non-cultured medium control were subtracted from the sample values and secreted APP levels and toxicity were expressed as % vehicle control. Of the 144 MES compounds screened, 12 inhibited secreted APP as determined by ELISA. The results are depicted in FIGS. 13A-M.
(§2) Using the experimental procedure outlined above, APP secretion and toxicity studies were performed on several other non-carbamate compounds, and the results are shown in Tables 3 and 4. The compound structures are provided in Table 2 in the application, which are identified by their MES number.

[2] = system: SH-SY-5Y Cells; experiment: MTS toxicity assay in SHSY5Y cells; format: cell-based, human
Protocol: as §1, §2

Structure (SMILES) | APP Secretion by SH-SY-5Y Cells ([1]; Dose 2 uM) | APP Secretion by SH-SY-5Y Cells ([1]; Dose 6 uM) | APP Secretion by SH-SY-5Y Cells ([1]; Dose 20 uM) | APP Toxicity SH-SY-5Y Cells (MTS assay) ([2]; Dose 2 uM) | APP Toxicity SH-SY-5Y Cells (MTS assay) ([2]; Dose 6 uM) | APP Toxicity SH-SY-5Y Cells (MTS assay) ([2]; Dose 20 uM) | APP Secretion by SH-SY-5Y Cells ([1]; Dose 2 uM, listed as 9294) | APP Secretion by SH-SY-5Y Cells ([1]; Dose 6 uM, listed as 9294) | APP Secretion by SH-SY-5Y Cells ([1]; Dose 20 uM, listed as 9294) | APP Toxicity SH-SY-5Y Cells (MTS assay) ([2]; Dose 2 uM, listed as 9294) | APP Toxicity SH-SY-5Y Cells (MTS assay) ([2]; Dose 6 uM, listed as 9294) | APP Toxicity SH-SY-5Y Cells (MTS assay) ([2]; Dose 20 uM, listed as 9294)
CC1C(=O)N(C)c2ccc(O)cc21 (stereo not drawn) [MES 9292, 1,3-Dimethyl-5-hydroxyoxindole] | 106.15 % vehicle control | 99.55 % vehicle control | 100.15 % vehicle control | 102.85 % vehicle control | 103.75 % vehicle control | 104.9 % vehicle control |  |  |  |  |  | 
COc1ccc2c(c1)C(C)C(=O)N2C (stereo not drawn) [MES 9293] | 97.8 % vehicle control | 102.75 % vehicle control | 94.45 % vehicle control | 100.8 % vehicle control | 99.85 % vehicle control | 101.95 % vehicle control |  |  |  |  |  | 
COc1ccc2c(c1)[C@@]1(C)CCNC1N2C (stereo partly drawn) [MES 9294] |  |  |  |  |  |  | 105.25 % vehicle control | 90 % vehicle control | 111 % vehicle control | 99.9 % vehicle control | 98.3 % vehicle control | 100.2 % vehicle control
COc1ccc2c(c1)C1(C)CCSC1N2C (stereo not drawn) [MES 9301] | 108.45 % vehicle control | 106.1 % vehicle control | 111.15 % vehicle control | 99.15 % vehicle control | 97.35 % vehicle control | 95.9 % vehicle control |  |  |  |  |  | 
COc1ccc2c(c1)[C@]1(C)CCSC1N2C (stereo partly drawn) [MES 9302] | 100.35 % vehicle control | 105.4 % vehicle control | 105.8 % vehicle control | 100.7 % vehicle control | 101.2 % vehicle control | 99.05 % vehicle control |  |  |  |  |  | 
COc1ccc2c(c1)C1(c3ccccc3)CCNC1N2C (stereo not drawn) [MES 9305] | 106.2 % vehicle control | 102.4 % vehicle control | 102.2 % vehicle control | 95.8 % vehicle control | 96.73 % vehicle control | 94.83 % vehicle control |  |  |  |  |  | 
CC(Br)C(=O)N(Cc1ccccc1)c1ccc(O)cc1 (stereo not drawn) [MES 9306] | 110.75 % vehicle control | 114.55 % vehicle control | 124.8 % vehicle control | 102.3 % vehicle control | 101.45 % vehicle control | 106 % vehicle control |  |  |  |  |  | 
COC(=O)CC1(C)C(=O)N(C)c2ccc(OC)cc21 (stereo not drawn) [MES 9309] | 100 % vehicle control | 106.4 % vehicle control | 100.9 % vehicle control | 100.85 % vehicle control | 98.6 % vehicle control | 101.1 % vehicle control |  |  |  |  |  | 
